Laboratory results from article PMC6329299 (The pharmacogenomics journal, 2015).
Where a chain is given by its changes, count along the chain named. Structures can show the parent of a compound that is named as a salt.

Tests used:
[1] = Hydrolysis by human kidney s9 fractions; type: in vitro ADME; details: substrate 100 μM, 3 concentrations of HKS9
Hydrolysis = details: for Vmax: HLS9, PBS pH 7.4, 37 °C, unit for ACEIs other than enalapril; for Km: human, pooled human liver s9 fractions (HLS9), pH 7.4; for Hydrolysis to active metabolite by human liver s9 fractions: prodrug 100 μM, 3 concentrations of HLS9
[2] = Hydrolysis by human intestine s9 fractions; type: in vitro ADME; details: substrate 100 μM, 3 concentrations of HIS9
CES1 variant G143E [3] = biological target: T1, CES1 variant G143E (Homo sapiens, UniProt P23141, G142E); assay: Hydrolysis by s9 fractions of cells stably expressing the CES1 variant G143E; details: prodrug 100 μM, 3 concentrations of cell s9
T1 sequence (P23141 18-568 isoform P23141-2 G143E limits assumed): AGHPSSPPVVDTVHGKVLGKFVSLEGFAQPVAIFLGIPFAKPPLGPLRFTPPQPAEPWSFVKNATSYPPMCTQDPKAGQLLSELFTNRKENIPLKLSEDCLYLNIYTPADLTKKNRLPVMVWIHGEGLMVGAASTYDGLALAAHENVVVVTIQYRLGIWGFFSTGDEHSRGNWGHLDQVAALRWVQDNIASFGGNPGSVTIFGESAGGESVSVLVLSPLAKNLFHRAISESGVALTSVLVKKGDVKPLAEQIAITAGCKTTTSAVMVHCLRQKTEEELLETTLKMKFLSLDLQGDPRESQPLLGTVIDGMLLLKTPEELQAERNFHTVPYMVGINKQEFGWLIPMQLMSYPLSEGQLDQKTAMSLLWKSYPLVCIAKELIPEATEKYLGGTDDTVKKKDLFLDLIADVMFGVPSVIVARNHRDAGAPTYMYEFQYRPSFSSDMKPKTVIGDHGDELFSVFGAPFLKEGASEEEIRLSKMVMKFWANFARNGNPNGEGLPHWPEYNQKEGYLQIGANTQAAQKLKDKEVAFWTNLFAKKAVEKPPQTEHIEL

wild type (WT) CES1 = biological target: T2, wild type (WT) CES1 (Homo sapiens, UniProt P23141); details: prodrug 100 μM, 3 concentrations of cell s9
T2 sequence (P23141 18-568 isoform P23141-2 limits assumed): T1 sequence (P23141 18-568 isoform P23141-2 G143E limits assumed) with E126G

[4] = ref [24]; cited from earlier work
CES1 variant G143E [5] = biological target: T1, CES1 variant G143E; details: in vitro function study; ref [13], [15], [22], [23]; cited from earlier work
[6] = Japanese cancer patients receiving irinotecan; ref [21]; cited from earlier work
[7] = after oseltamivir; ref [26]; cited from earlier work
[8] = ref [20]; cited from earlier work
[9] = tested on: CES1 in individual human liver s9 fractions; type: in vitro ADME; details: CES1 expression comparable to pooled HLS9
not read [10] = substrate: CCOC(=O)[C@H](CCc1ccccc1)N[C@@H](C)C(=O)N1[C@H](C(=O)O)C[C@@H]2CCC[C@@H]21; assay: not read; details: other: WT CES1 cell s9; pH 7.4
not read [11] = substrate: CCC[C@H](N[C@@H](C)C(=O)N1[C@H](C(=O)O)C[C@@H]2CCCC[C@@H]21)C(=O)OCC; assay: not read; details: other: WT CES1 cell s9; pH 7.4
not read [12] = substrate: CCOC(=O)[C@H](CCc1ccccc1)N[C@@H](C)C(=O)N1Cc2cc(OC)c(OC)cc2C[C@H]1C(=O)O; assay: not read; details: other: WT CES1 cell s9; pH 7.4
not read [13] = substrate: CCC(=O)O[C@@H](O[P@](=O)(CCCCc1ccccc1)CC(=O)N1C[C@H](C2CCCCC2)C[C@H]1C(=O)O)C(C)C; assay: not read; details: other: WT CES1 cell s9; pH 7.4
not read [14] = substrate: CCOC(=O)[C@H](CCc1ccccc1)N[C@@H](C)C(=O)N1CCC[C@H]1C(=O)O; assay: not read; details: other: WT CES1 cell s9; pH 7.4

With `CCC(=O)O[C@@H](O[P@](=O)(CCCCc1ccccc1)CC(=O)N1C[C@H](C2CCCCC2)C[C@H]1C(=O)O)C(C)C` [Fosinopril, Fosinopril sodium salt] the “Hydrolysis by human kidney s9 fractions” value [1] was “No appreciable activation”, the Vmax (Hydrolysis) was 1.4 ± 0.2 nmole/min/mg protein and the Km (Hydrolysis) was 471 ± 212 µM. The “Hydrolysis to active metabolite by human liver s9 fractions” value (shortened to “Hydrolysis … by human liver s9 fractions”) (Hydrolysis) was “efficiently hydrolyzed” and the “Hydrolysis by human intestine s9 fractions” value [2] was “No appreciable activation”.

With `CCOC(=O)[C@H](CCc1ccccc1)N[C@@H](C)C(=O)N1Cc2cc(OC)c(OC)cc2C[C@H]1C(=O)O` [Moexipril, moexipril hydrochloride] the “Hydrolysis by human kidney s9 fractions” value [1] was “No appreciable activation”, the Vmax (Hydrolysis) was 4.4 ± 0.3 nmole/min/mg protein and the Km (Hydrolysis) was 1460 ± 266 µM. For the same molecule, the “Hydrolysis … by human liver s9 fractions” value (Hydrolysis) was “efficiently hydrolyzed” and the “Hydrolysis by human intestine s9 fractions” value [2] was “No appreciable activation”.

In the case of `CC(=O)Oc1ccc([N+](=O)[O-])cc1` [PNPA, p-nitrophenyl acetate], the “Hydrolysis by human kidney s9 fractions” value [1] is reported as “readily hydrolyzed” and the “Hydrolysis by human intestine s9 fractions” value [2] is reported as “readily hydrolyzed”.

In the case of `CCC[C@H](N[C@@H](C)C(=O)N1[C@H](C(=O)O)C[C@@H]2CCCC[C@@H]21)C(=O)OCC` [Perindopril, perindopril erbumine], the “Hydrolysis by human kidney s9 fractions” value [1] is reported as “No appreciable activation”, the Vmax (Hydrolysis) is reported as 18.1 ± 0.8 nmole/min/mg protein and the Km (Hydrolysis) is reported as 1770 ± 165 µM. The “Hydrolysis … by human liver s9 fractions” value (Hydrolysis) was “efficiently hydrolyzed” and the “Hydrolysis by human intestine s9 fractions” value [2] was “No appreciable activation”.

In the case of `CCOC(=O)[C@H](CCc1ccccc1)N[C@@H](C)C(=O)N1[C@H](C(=O)O)C[C@@H]2CCC[C@@H]21` [Ramipril, ramipril], the “Active metabolite after incubation with CES1 variant G143E” value (CES1 variant G143E [3]) is reported as “not detected”, the “Hydrolysis by human kidney s9 fractions” value [1] is reported as “No appreciable activation” and the “Hydrolysis to active metabolite by WT CES1” value (wild type (WT) CES1) is reported as “readily hydrolyzed”. For the same molecule, the Vmax (Hydrolysis) was 18.1 ± 0.7 nmole/min/mg protein, the Km (Hydrolysis) was 690 ± 61.8 µM and the “Hydrolysis … by human liver s9 fractions” value (Hydrolysis) was “efficiently hydrolyzed”. For the same molecule, the “Hydrolysis by human intestine s9 fractions” value [2] was “No appreciable activation”.

For `COC(=O)[C@H](c1ccccc1Cl)N1CC[C@@H](S)/C(=C\C(=O)O)C1` [clopidogrel active metabolite], the “concentrations higher in patients carrying heterozygous 143E relative to 143GG” value [4] is given as “approximately 60%”.

For `COC(=O)[C@H](c1ccccc1Cl)N1CCc2sccc2C1` [clopidogrel], the “Function of the G143E variant for metabolism of the substrate” value (“Function of the G143E variant” below) (CES1 variant G143E [5]) is given as “loss-of-function”.

In the case of `CCc1c2c(nc3ccc(OC(=O)N4CCC(N5CCCCC5)CC4)cc13)-c1cc3c(c(=O)n1C2)COC(=O)[C@]3(O)CC` [irinotecan], the “median AUC ratios of metabolites SN-38 and SN-38G to parent compound, higher in CES1P1VAR heterozygous and homozygous patients vs CES1P1/CES1P1” value [6] is given as 24%.

For `COC(=O)C(c1ccccc1)C1CCCCN1` (centres unmarked) [methylphenidate], the “Function of the G143E variant” value (CES1 variant G143E [5]) is listed as “loss-of-function”.

In the case of `CCC(CC)O[C@@H]1C=C(C(=O)O)C[C@H](N)[C@H]1NC(C)=O` [oseltamivir carboxylate], the “mean Cmax lower in 143E heterozygotes than in non-carriers” value [7] is given as 17.5%.

For `CCOC(=O)C1=C[C@@H](OC(CC)CC)[C@H](NC(C)=O)[C@@H](N)C1` [oseltamivir], the “Metabolism in healthy subjects with different CES1/CES1VAR genotypes” value [8] is given as “not significantly different”.

In the case of `CCOC(=O)[C@H](CCc1ccccc1)N[C@@H](C)C(=O)N1[C@H](C(=O)O)C[C@H]2CCCC[C@@H]21` [trandolapril], the “CES1 activity in the null-CES1 liver samples (some G143E non-carriers)” value [9] is given as “inactive” and the “Function of the G143E variant” value (CES1 variant G143E [5]) is given as “loss-of-function”.

B1: wild type (WT) CES1 (Homo sapiens) (protein)
chain: T1 sequence (P23141 18-568 isoform P23141-2 G143E limits assumed) with E126G
For B1, the Km (not read [10]) was 245.6 ± 39.9 µM, the Vmax (not read [10]) was 11.6 ± 0.6 nmole/min/mg protein and the Vmax/Km (not read [10]) was 47.1 μl/min/mg protein. The Km (not read [11]) was 477.5 ± 60.9 µM, the Vmax (not read [11]) was 8.3 ± 0.4 nmole/min/mg protein and the Vmax/Km (not read [11]) was 17.4 μl/min/mg protein. The Km (not read [12]) was 143.6 ± 24.5 µM, the Vmax (not read [12]) was 1.8 ± 0.1 nmole/min/mg protein and the Vmax/Km (not read [12]) was 12.4 μl/min/mg protein. The Km (not read [13]) was 276.1 ± 83.2 µM, the Vmax (not read [13]) was 1.6 ± 0.1 nmole/min/mg protein and the Vmax/Km (not read [13]) was 5.7 μl/min/mg protein. The Km (not read [14]) was 36.6 ± 4.5 µM, the Vmax (not read [14]) was 389.0 ± 16.1 pmole/min/mg protein and the Vmax/Km (not read [14]) was 10.6 μl/min/mg protein.
